# PubChem BioAssay AID1963964 (Molecular Pharmacology Branch, DTP, NCI, 2024)
# Test system: 997726-040-R-J2-PDC tumor spheroids, viability
# Experiment: Anticancer human tumor 997726-040-R-J2-PDC patient-derived squamous cell lung carcinoma cell line growth inhibition [PI3K]
# Conditions: spheroids with HUVEC and MSC; for viability, T/C: stronger effect = lower value
# Source text: Combinatorial screen of targeted agents with the PI3K inhibitors inavolisib, alpelisib, duvelisib, and copanlisib in multi-cell type tumor spheroids
# A high-throughput screen of multi-cell type tumor spheroids was designed to identify active combinations of targeted small molecules and PI3K pathway inhibitors. Complex spheroids include a stromal component modeled by human endothelial cells (HUVEC) and fibroblasts modeled by human mesenchymal stem cells (MSCs). The concentration ranges selected for each drug and investigational agent were based upon clinically achievable concentrations if the clinical Cmax of the agent was known.
# Compounds. The drugs and investigational agents: inavolisib (NSC800729), alpelisib (NSC765974), duvelisib (NSC772469), copanlisib (NSC816437), ipatasertib (NSC767898), afuresertib (NSC778305), talazoparib (NSC767125), sapanisertib (NSC764658), selumetinib (NSC741078), tovorafenib (DAY101, NSC766906), vemurafenib (NSC761431), ravoxertinib (NSC781343), sotorasib (NSC818433), MRTX1133 (NSC 836407), abemaciclib (NSC 768073), palbociclib (NSC758247), venetoclax (NSC 766270), SY5609 (NSC837396), enzalutamide (NSC755605), and darolutamide (NSC825331), were obtained from the National Cancer Institute (NCI) Developmental Therapeutics Program Chemical Repository. The FDA-approved anticancer drug set is available from the NCI Developmental Therapeutics Program. […] The stock solutions were prepared in dimethyl sulfoxide (DMSO, Sigma-Aldrich, St. Louis, MO, cat. D2650) at 800-fold the tested concentration and stored at -70 degrees C prior to their use. All drugs and investigational agents were tested over a range starting from a high concentration at or near the clinical Cmax and decreasing in half-log increments. If the clinical Cmax for an agent had not been determined, the highest concentration tested was 10 microM.
# Cell Culture. All cells were maintained in an incubator at 37 degrees C and 5% CO2 with 95% humidity. The PDC lines were cultured according to standard operating procedures established by the NCI PDMR (https://pdmr.cancer.gov/sops/default.htm). All PDCs were thawed and cultured in Matrigel-coated flasks prepared with a working solution of 1X Ham's F-12 nutrient mix, without supplementation (Invitrogen, Waltham, MA, cat. 11765054), 100 U/mL penicillin-streptomycin (Invitrogen, cat. 15140122), and 2.5% Matrigel (Corning Inc., Corning, NY, cat. 354248) for the first three passages. The 354836-022-R-J1-PDC, 475296-252-R-J1-PDC, and 997726-040-R-J2-PDC lines were cultured in 6A media, which includes advanced DMEM/F-12 (Thermo Fisher Scientific, cat. 12634028), 10 mM HEPES (Thermo Fisher Scientific, cat. 15630080), 1X GlutaMAX supplement (Thermo Fisher Scientific, cat. 35050061), 0.1 mg/mL primocin (InvivoGen, San Diego, CA, cat. ant-pm-2), 10% defined fetal bovine serum, heat inactivated (HyClone Laboratories Inc., Logan, UT, cat. SH30070.03HI), 50% L-WRN conditioned media (ATCC, cat. CRL-3276), 1.25 mM N-Acetyl-L-cysteine (Sigma-Aldrich, cat. A9165), 10 mM nicotinamide (Sigma-Aldrich, cat. N0636), 1X B-27 supplement (Thermo Fisher Scientific, cat. 17504044), 1X N-2 supplement (Thermo Fisher Scientific, cat. 17502048), and 10 microM Y-27632 dihydrochloride (Tocris Bioscience, Bristol, United Kingdom, cat. 1254). The 624824-186-R-J2-PDC line was cultured in 6C/Colon 1B media, which includes all 6A media components plus 50 ng/mL human EGF recombinant protein (Thermo Fisher Scientific, cat. PHG0311). […]
# [1] = curve of first compound, second compound 0.0316 µM
# [2] = curve of first compound, second compound 0.1 µM
# [3] = curve of first compound, second compound 0.316 µM
# [4] = curve of first compound, second compound 1 µM
# [5] = curve of first compound, second compound 3.16 µM
# [6] = curve of first compound, second compound 10 µM
# [7] = second compound 0.0316 µM, first compound 0.0316 µM
# [8] = second compound 0.0316 µM, first compound 0.1 µM
# [9] = second compound 0.0316 µM, first compound 0.316 µM
# [10] = second compound 0.0316 µM, first compound 1 µM
# [11] = second compound 0.0316 µM, first compound 3.16 µM
# [12] = second compound 0.0316 µM, first compound 10 µM
# [13] = second compound 0.1 µM, first compound 0.0316 µM
# [14] = second compound 0.1 µM, first compound 0.1 µM
# [15] = second compound 0.1 µM, first compound 0.316 µM
# [16] = second compound 0.1 µM, first compound 1 µM
# [17] = second compound 0.1 µM, first compound 3.16 µM
# [18] = second compound 0.1 µM, first compound 10 µM
# [19] = second compound 0.316 µM, first compound 0.0316 µM
# [20] = second compound 0.316 µM, first compound 0.1 µM
# [21] = second compound 0.316 µM, first compound 0.316 µM
# [22] = second compound 0.316 µM, first compound 1 µM
# [23] = second compound 0.316 µM, first compound 3.16 µM
# [24] = second compound 0.316 µM, first compound 10 µM
# [25] = second compound 1 µM, first compound 0.0316 µM
# [26] = second compound 1 µM, first compound 0.1 µM
# [27] = second compound 1 µM, first compound 0.316 µM
# [28] = second compound 1 µM, first compound 1 µM
# [29] = second compound 1 µM, first compound 3.16 µM
# [30] = second compound 1 µM, first compound 10 µM
# [31] = second compound 3.16 µM, first compound 0.0316 µM
# [32] = second compound 3.16 µM, first compound 0.1 µM
# [33] = second compound 3.16 µM, first compound 0.316 µM
# [34] = second compound 3.16 µM, first compound 1 µM
# [35] = second compound 3.16 µM, first compound 3.16 µM
# [36] = second compound 3.16 µM, first compound 10 µM
# [37] = second compound 10 µM, first compound 0.0316 µM
# [38] = second compound 10 µM, first compound 0.1 µM
# [39] = second compound 10 µM, first compound 0.316 µM
# [40] = second compound 10 µM, first compound 1 µM
# [41] = second compound 10 µM, first compound 3.16 µM
# [42] = second compound 10 µM, first compound 10 µM
# 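Note: spheroids exposed to compounds for seven days before readout.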
smiles,measurement,setting,value
CC(C)NCC(C(=O)N1CCN(c2ncnc3c2C(C)CC3O)CC1)c1ccc(Cl)cc1 (stereo not drawn) + Cc1nc(NC(=O)N2CCCC2C(N)=O)sc1-c1ccnc(C(C)(C)C(F)(F)F)c1,IC50,[1],269 nM
same,IC50,[2],269 nM
same,IC50,[3],120 nM
same,IC50,[4],< 31.6 nM
same,IC50,[5],< 31.6 nM
same,IC50,[6],< 31.6 nM
same,"viability, T/C",[7],73.4%
same,"viability, T/C",[8],65.9%
same,"viability, T/C",[9],47.7%
same,"viability, T/C",[10],23.8%
same,"viability, T/C",[11],12.7%
same,"viability, T/C",[12],8.8%
same,"viability, T/C",[13],71.6%
same,"viability, T/C",[14],66.8%
same,"viability, T/C",[15],46.6%
same,"viability, T/C",[16],25.9%
same,"viability, T/C",[17],15.2%
same,"viability, T/C",[18],10.6%
same,"viability, T/C",[19],55.9%
same,"viability, T/C",[20],52.5%
same,"viability, T/C",[21],39%
same,"viability, T/C",[22],22.4%
same,"viability, T/C",[23],11.2%
same,"viability, T/C",[24],9.52%
same,"viability, T/C",[25],49.5%
same,"viability, T/C",[26],37.2%
same,"viability, T/C",[27],34%
same,"viability, T/C",[28],21%
same,"viability, T/C",[29],10.5%
same,"viability, T/C",[30],6.76%
same,"viability, T/C",[31],33.2%
same,"viability, T/C",[32],27.5%
same,"viability, T/C",[33],25%
same,"viability, T/C",[34],16.5%
same,"viability, T/C",[35],7.98%
same,"viability, T/C",[36],4.28%
same,"viability, T/C",[37],15.8%
same,"viability, T/C",[38],10.9%
same,"viability, T/C",[39],10.7%
same,"viability, T/C",[40],5.86%
same,"viability, T/C",[41],3.95%
same,"viability, T/C",[42],3.36%
CC(C)NCC(C(=O)N1CCN(c2ncnc3c2C(C)CC3O)CC1)c1ccc(Cl)cc1 (stereo not drawn) + CC(Nc1ncnc2nc[nH]c12)c1cc2cccc(Cl)c2c(=O)n1-c1ccccc1,IC50,[1],388 nM
same,IC50,[2],400 nM
same,IC50,[3],398 nM
same,IC50,[4],297 nM
same,IC50,[5],278 nM
same,IC50,[6],55.6 nM
same,"viability, T/C",[7],82.7%
same,"viability, T/C",[8],74.3%
same,"viability, T/C",[9],54.4%
same,"viability, T/C",[10],29.7%
same,"viability, T/C",[11],14.6%
same,"viability, T/C",[12],10.8%
same,"viability, T/C",[13],79.5%
same,"viability, T/C",[14],85.4%
same,"viability, T/C",[15],50.1%
same,"viability, T/C",[16],31.6%
same,"viability, T/C",[17],12.7%
same,"viability, T/C",[18],10.7%
same,"viability, T/C",[19],87.1%
same,"viability, T/C",[20],87.3%
same,"viability, T/C",[21],53.1%
same,"viability, T/C",[22],27.4%
same,"viability, T/C",[23],15.5%
same,"viability, T/C",[24],9.73%
same,"viability, T/C",[25],88.9%
same,"viability, T/C",[26],69.2%
same,"viability, T/C",[27],48.7%
same,"viability, T/C",[28],32%
same,"viability, T/C",[29],15%
same,"viability, T/C",[30],9.4%
same,"viability, T/C",[31],80.1%
same,"viability, T/C",[32],69.6%
same,"viability, T/C",[33],46.3%
same,"viability, T/C",[34],28.3%
same,"viability, T/C",[35],15.3%
same,"viability, T/C",[36],10.8%
same,"viability, T/C",[37],54.7%
same,"viability, T/C",[38],42.8%
same,"viability, T/C",[39],41.8%
same,"viability, T/C",[40],27.3%
same,"viability, T/C",[41],13.7%
same,"viability, T/C",[42],9.38%
CC(Cn1ccc(-c2ccc(C#N)c(Cl)c2)n1)NC(=O)c1cc(C(C)O)[nH]n1 (stereo not drawn) + CC(Nc1ncnc2nc[nH]c12)c1cc2cccc(Cl)c2c(=O)n1-c1ccccc1,IC50,[1],> 10000 nM
same,IC50,[2],> 10000 nM
same,IC50,[3],> 10000 nM
same,IC50,[4],> 10000 nM
same,IC50,[5],> 10000 nM
same,IC50,[6],> 10000 nM
same,"viability, T/C",[7],100%
same,"viability, T/C",[8],88.5%
same,"viability, T/C",[9],104%
same,"viability, T/C",[10],109%
same,"viability, T/C",[11],100%
same,"viability, T/C",[12],105%
same,"viability, T/C",[13],108%
same,"viability, T/C",[14],100%
same,"viability, T/C",[15],109%
same,"viability, T/C",[16],96.4%
same,"viability, T/C",[17],116%
same,"viability, T/C",[18],108%
same,"viability, T/C",[19],94.3%
same,"viability, T/C",[20],92.1%
same,"viability, T/C",[21],95.1%
same,"viability, T/C",[22],92.6%
same,"viability, T/C",[23],101%
same,"viability, T/C",[24],98.2%
same,"viability, T/C",[25],93.9%
same,"viability, T/C",[26],88.4%
same,"viability, T/C",[27],91.6%
same,"viability, T/C",[28],87.2%
same,"viability, T/C",[29],91.5%
same,"viability, T/C",[30],88.2%
same,"viability, T/C",[31],78.1%
same,"viability, T/C",[32],70.5%
same,"viability, T/C",[33],71.2%
same,"viability, T/C",[34],68.9%
same,"viability, T/C",[35],80.9%
same,"viability, T/C",[36],72.5%
same,"viability, T/C",[37],51.5%
same,"viability, T/C",[38],56.2%
same,"viability, T/C",[39],48.9%
same,"viability, T/C",[40],53.7%
same,"viability, T/C",[41],51.5%
same,"viability, T/C",[42],52.8%
C#Cc1c(F)ccc2cc(O)cc(-c3ncc4c(N5CC6CCC(C5)N6)nc(OCC56CCCN5CC(F)C6)nc4c3F)c12 (stereo not drawn),"viability, T/C",compound 0.0316 µM,105% [middle of 4 runs]
same,"viability, T/C",compound 0.1 µM,96% [middle of 4 runs]
same,"viability, T/C",compound 0.316 µM,96.5% [middle of 4 runs]
same,"viability, T/C",compound 1 µM,96.6% [middle of 4 runs]
same,"viability, T/C",compound 3.16 µM,92.6% [middle of 4 runs]
same,"viability, T/C",compound 10 µM,77.5% [middle of 4 runs]
same,IC50,curve of compound,> 10000 nM
